The test concerns the target T1, K-Ras G12C (Homo sapiens, UniProt P01116, G12C).
T1 construct: This protein contained 188 amino acids in total, including an N-terminal 6-Histidine tag; made in house; host or cells: E. coli BL21
Briefly: CAF assay (% CAF; method in Example 7, not in this part). It is filed as binding. The settings on record: 1 h; for % CAF @ 10 uM, 1h: Table 3.

With `C=CC(=O)N1C2CN(c3nc(=O)n4c5c(c(-c6ccc(F)cc6F)c(Cl)cc35)SCC4)CC1CN(S(C)(=O)=O)C2` [Example 95, 7-(9-acryloyl-7-(methylsulfonyl)-3,7,9-triazabicyclo[3.3.1]nonan-3-yl)-9-chloro-10-(2,4-difluorophenyl)-2,3-dihydro-5H-[1,4]thiazino[2,3,4-ij]quinazolin-5-one], the “% CAF @ 10 uM, 1h” value turned out to be 70.5%.
Still for that read-out and setting: then `C=CC(=O)N1CCN(c2nc(=O)n3c4c(c(-c5cccc6c5C(=O)NC6)c(Cl)cc24)SCC3)[C@@H](C)C1` [Example 96, 7-((S)-4-acryloyl-2-methylpiperazin-1-yl)-9-chloro-10-(3-oxoisoindolin-4-yl)-2,3-dihydro-5H-[1,4]thiazino[2,3,4-ij]quinazolin-5-one], with 54%; and `C=CC(=O)N1CCN(c2nc(=O)n3c4c(c(-c5ccc(F)cc5F)c(Cl)cc24)SC[C@H]3CCCN2C[C@@H]3C[C@H]2CO3)[C@@H](C)C1` [Example 97, (3R)-3-(3-((1S,4S)-2-oxa-5-azabicyclo[2.2.1]heptan-5-yl)propyl)-7-((S)-4-acryloyl-2-methylpiperazin-1-yl)-9-chloro-10-(2,4-difluorophenyl)-2,3-dihydro-5H-[1,4]thiazino[2,3,4-ij]quinazolin-5-one], with 96.5%; and `C=CC(=O)N1CCN(c2nc(=O)n3c4c(c(-c5ccc(F)c(Cl)c5)c(Cl)cc24)SCC3)[C@@H](C)C1` [Example 98, (S)-7-(4-acryloyl-2-methylpiperazin-1-yl)-9-chloro-10-(3-chloro-4-fluorophenyl)-2,3-dihydro-5H-[1,4]thiazino[2,3,4-ij]quinazolin-5-one], with 86.4%.
Regarding `C=CC(=O)N1CCN(c2nc(=O)n3c4c(c(-c5ccc(F)cc5F)c(Cl)cc24)SC[C@H]3C)[C@@H](C)C1` [Example 99, (3R)-7-((S)-4-acryloyl-2-methylpiperazin-1-yl)-9-chloro-10-(2,4-difluorophenyl)-3-methyl-2H-[1,4]thiazino[2,3,4-ij]quinazolin-5(3H)-one], the “% CAF @ 10 uM, 1h” value was 87.2%. In addition, the “% CAF @ 10 μM, 1 h” value (10 μM, Table 4) is listed as 87.2%.
Regarding `C=CC(=O)N1CCN(c2nc(=O)n3c4c(c(-c5ccc(F)cc5F)c(C(F)(F)F)cc24)SCC3)C2CS(=O)(=O)CC21` (stereo not drawn) [Example 100, 7-(4-acryloyl-6,6-dioxidohexahydrothieno[3,4-b]pyrazin-1(2H)-yl)-10-(2,4-difluorophenyl)-9-(trifluoromethyl)-2,3-dihydro-5H-[1,4]thiazino[2,3,4-ij]quinazolin-5-one], the “% CAF @ 10 uM, 1h” value was found to be 94%.
The same measure, in the same setting: to `C=CC(=O)N1C2CC(=O)CC1CN(c1nc(=O)n3c4c(c(-c5ccc(F)cc5F)c(C(F)(F)F)cc14)SCC3)C2` [Example 101, 7-(9-acryloyl-7-oxo-3,9-diazabicyclo[3.3.1]nonan-3-yl)-10-(2,4-difluorophenyl)-9-(trifluoromethyl)-2,3-dihydro-5H-[1,4]thiazino[2,3,4-ij]quinazolin-5-one] belongs 96.5%.
On to `C=CC(=O)N1CCN(c2nc(=O)n3c4c(c(-c5ccc(F)cc5F)c(Cl)cc24)SCCC3)[C@@H](C)C1` [Example 102, 8-((S)-4-acryloyl-2-methylpiperazin-1-yl)-10-chloro-11-(2,4-difluorophenyl)-3,4-dihydro-2H,6H-[1,4]thiazepino[2,3,4-ij]quinazolin-6-one], for which the “% CAF @ 10 uM, 1h” value is recorded as 95.4%.
The same measure, in the same setting: to `C=CC(=O)N1CCN(c2nc(=O)n3c4c(c(-c5ccc(F)cc5F)c(OC)cc24)SCC3)[C@@H](C)C1` [Example 103, 7-((S)-4-acryloyl-2-methylpiperazin-1-yl)-10-(2,4-difluorophenyl)-9-methoxy-2,3-dihydro-5H-[1,4]thiazino[2,3,4-ij]quinazolin-5-one] belongs 92.5%.
With `C=CC(=O)N1CCN(c2nc(=O)n3c4c(c(-c5ccc(F)cc5F)c(Cl)cc24)SCC3)[C@@H](CC#N)C1` [Example 104, 2-((2S)-4-acryloyl-1-(9-chloro-10-(2,4-difluorophenyl)-5-oxo-2,3-dihydro-5H-[1,4]thiazino[2,3,4-ij]quinazolin-7-yl)piperazin-2-yl)acetonitrile], the “% CAF @ 10 uM, 1h” value was determined as 94.4%.
On the same count and under the same terms, then `C=CC(=O)N1CCN(c2nc(=O)n3c4c(c(-c5cccc6c5CC(=O)N6)c(Cl)cc24)SCC3)[C@@H](C)C1` [Example 105, 7-((S)-4-acryloyl-2-methylpiperazin-1-yl)-9-chloro-10-(2-oxoindolin-4-yl)-2,3-dihydro-5H-[1,4]thiazino[2,3,4-ij]quinazolin-5-one], with 18.9%; and `C=CC(=O)N1CCN(c2nc(=O)n3c4c(c(-c5c(F)cc(Cl)cc5F)c(Cl)cc24)SCC3)[C@@H](C)C1` [Example 106, (S)-7-(4-acryloyl-2-methylpiperazin-1-yl)-9-chloro-10-(4-chloro-2,6-difluorophenyl)-2,3-dihydro-5H-[1,4]thiazino[2,3,4-ij]quinazolin-5-one], with 45.2%; and `C=CC(=O)N1CCN(c2nc(=O)n3c4c(c(-c5c(F)cc(F)cc5F)c(Cl)cc24)SC[C@@H]3CCCN2C[C@@H]3C[C@H]2CO3)[C@@H](C)C1` [Example 109, (S)-3-(3-((1S,4S)-2-oxa-5-azabicyclo[2.2.1]heptan-5-yl)propyl)-7-((S)-4-acryloyl-2-methylpiperazin-1-yl)-9-chloro-10-(2,4,6-trifluorophenyl)-2,3-dihydro-5H-[1,4]thiazino[2,3,4-ij]quinazolin-5-one], with 96.9%.
As to `C=CC(=O)N1CCN(c2nc(=O)n3c4c(c(-c5c(F)cc(F)cc5F)c(Cl)cc24)SC[C@H]3CCCN2C[C@@H]3C[C@H]2CO3)[C@@H](C)C1` [Example 110, (R)-3-(3-((1S,4S)-2-oxa-5-azabicyclo[2.2.1]heptan-5-yl)propyl)-7-((S)-4-acryloyl-2-methylpiperazin-1-yl)-9-chloro-10-(2,4,6-trifluorophenyl)-2,3-dihydro-5H-[1,4]thiazino[2,3,4-ij]quinazolin-5-one], the “% CAF @ 10 uM, 1h” value was determined as 96.6%.
As to `C[C@H]1CN(C(=O)/C=C/C(F)(F)F)CCN1c1nc(=O)n2c3c(c(-c4c(F)cc(F)cc4F)c(Cl)cc13)SCC2` [Example 111, (S,E)-9-chloro-7-(2-methyl-4-(4,4,4-trifluorobut-2-enoyl)piperazin-1-yl)-10-(2,4,6-trifluorophenyl)-2,3-dihydro-5H-[1,4]thiazino[2,3,4-ij]quinazolin-5-one], the “% CAF @ 10 uM, 1h” value worked out at 95.2%.
Turning to `C[C@H]1CN(C(=O)/C=C/C(F)(F)F)CCN1c1nc(=O)n2c3c(c(-c4ccc(F)cc4F)c(Cl)cc13)SCC2` [Example 112, 9-chloro-10-(2,4-difluorophenyl)-7-((S)-2-methyl-4-((E)-4,4,4-trifluorobut-2-enoyl)piperazin-1-yl)-2,3-dihydro-5H-[1,4]thiazino[2,3,4-ij]quinazolin-5-one], the “% CAF @ 10 uM, 1h” value is reported as 86.2%.
Still for that read-out and setting: then `C=C(F)C(=O)N1CCN(c2nc(=O)n3c4c(c(-c5ccc(F)cc5F)c(Cl)cc24)SCC3)[C@@H](C)C1` [Example 113, 9-chloro-10-(2,4-difluorophenyl)-7-((S)-4-(2-fluoroacryloyl)-2-methylpiperazin-1-yl)-2,3-dihydro-5H-[1,4]thiazino[2,3,4-ij]quinazolin-5-one], with 21.7%.

(Values after US20230107642A1 (Erasca, Inc., priority 2020, published 2023).)
